PubChem BioAssay AID1918995 (Molecular Pharmacology Branch, DTP, NCI, 2023)

Test system: 324938-238-R-J1-PDC complex spheroid growth, % test/control
Assay: Anticancer human tumor 324938-238-R-J1-PDC patient-derived bladder carcinoma cell line growth inhibition [AhR]
Conditions: for IC50: curve of first compound; for viability, T/C: stronger effect = lower value
Summary of the method: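 Agents were dosed in half-log steps down from roughly clinical Cmax, or from 10 microM where Cmax was unknown, alone and with AhR antagonists. Read-out: percent test/control growth of tumor spheroids containing HUVEC and MSC stromal cells.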

[1] = second compound 0.1 µM, first compound 0.0316 µM
[2] = second compound 0.1 µM, first compound 0.1 µM
[3] = second compound 0.1 µM, first compound 0.316 µM
[4] = second compound 0.1 µM, first compound 1 µM
[5] = second compound 0.1 µM, first compound 3.16 µM
[6] = second compound 0.1 µM, first compound 10 µM
[7] = second compound 0.316 µM, first compound 0.0316 µM
[8] = second compound 0.316 µM, first compound 0.1 µM
[9] = second compound 0.316 µM, first compound 0.316 µM
[10] = second compound 0.316 µM, first compound 1 µM
[11] = second compound 0.316 µM, first compound 3.16 µM
[12] = second compound 0.316 µM, first compound 10 µM
[13] = second compound 1 µM, first compound 0.0316 µM
[14] = second compound 1 µM, first compound 0.1 µM
[15] = second compound 1 µM, first compound 0.316 µM
[16] = second compound 1 µM, first compound 1 µM
[17] = second compound 1 µM, first compound 3.16 µM
[18] = second compound 1 µM, first compound 10 µM
[19] = second compound 3.16 µM, first compound 0.0316 µM
[20] = second compound 3.16 µM, first compound 0.1 µM
[21] = second compound 3.16 µM, first compound 0.316 µM
[22] = second compound 3.16 µM, first compound 1 µM
[23] = second compound 3.16 µM, first compound 3.16 µM
[24] = second compound 3.16 µM, first compound 10 µM
[25] = second compound 10 µM, first compound 0.0316 µM
[26] = second compound 10 µM, first compound 0.1 µM
[27] = second compound 10 µM, first compound 0.316 µM
[28] = second compound 10 µM, first compound 1 µM
[29] = second compound 10 µM, first compound 3.16 µM
[30] = second compound 10 µM, first compound 10 µM
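Also: spheroids exposed to agents for seven days before viability read.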

Row | Compound | IC50 (second compound 0.1 µM) [µM] | IC50 (second compound 0.316 µM) [µM] | IC50 (second compound 1 µM) [µM] | IC50 (second compound 3.16 µM) [µM] | IC50 (second compound 10 µM) [µM] | viability, T/C [1] [%] | viability, T/C [2] [%] | viability, T/C [3] [%] | viability, T/C [4] [%] | viability, T/C [5] [%] | viability, T/C [6] [%] | viability, T/C [7] [%] | viability, T/C [8] [%] | viability, T/C [9] [%] | viability, T/C [10] [%] | viability, T/C [11] [%] | viability, T/C [12] [%] | viability, T/C [13] [%] | viability, T/C [14] [%] | viability, T/C [15] [%] | further results
1 | Nc1ccccc1NC(=O)c1ccc(CNC(=O)OCc2cccnc2)cc1 + Cc1cncc(-c2nc(NCCc3c[nH]c4ccccc34)c3ncn(C(C)C)c3n2)c1 | 1.74 | 4.61 | 3.44 | 4.1 | < 0.0316 | 87.7 | 91 | 97.5 | 48.9 | 43.2 | 6.54 | 67.6 | 104 | 79.5 | 83.4 | 72.2 | 4.51 | 105 | 89.6 | 79.8 | viability, T/C [16]: 78.5%; viability, T/C [17]: 57.8%; viability, T/C [18]: 3.52%; viability, T/C [19]: 64.2%; viability, T/C [20]: 61%; viability, T/C [21]: 62.3%; viability, T/C [22]: 65.3%; viability, T/C [23]: 68.1%; viability, T/C [24]: 1.13%; viability, T/C [25]: 2.83%; viability, T/C [26]: 3.36%; viability, T/C [27]: 4.55%; viability, T/C [28]: 1.45%; viability, T/C [29]: 6%; viability, T/C [30]: 0.4%
2 | O=C(C=Cc1cccc(S(=O)(=O)Nc2ccccc2)c1)NO + Cc1cncc(-c2nc(NCCc3c[nH]c4ccccc34)c3ncn(C(C)C)c3n2)c1 | 3.65 | 3.63 | 3.03 | 3.75 | < 0.0316 | 121 | 130 | 95.4 | 104 | 53.5 | 1.77 | 101 | 106 | 95.3 | 92.7 | 56.2 | 2.06 | 112 | 122 | 96.5 | viability, T/C [16]: 95.2%; viability, T/C [17]: 46.6%; viability, T/C [18]: 3.32%; viability, T/C [19]: 133%; viability, T/C [20]: 109%; viability, T/C [21]: 125%; viability, T/C [22]: 87.7%; viability, T/C [23]: 60%; viability, T/C [24]: 0.96%; viability, T/C [25]: 9.41%; viability, T/C [26]: 28.3%; viability, T/C [27]: 40%; viability, T/C [28]: 63%; viability, T/C [29]: 61.8%; viability, T/C [30]: 0.41%
3 | O=C(c1cc(Cc2n[nH]c(=O)c3ccccc23)ccc1F)N1CCN(C(=O)C2CC2)CC1 + Cc1cncc(-c2nc(NCCc3c[nH]c4ccccc34)c3ncn(C(C)C)c3n2)c1 | > 10 | > 10 | > 10 | > 10 | < 0.0316 | 106 | 96.6 | 78.3 | 71.6 | 72.5 | 79.5 | 97.2 | 115 | 105 | 97.2 | 92.3 | 74.4 | 78.4 | 106 | 91 | viability, T/C [16]: 61.5%; viability, T/C [17]: 72%; viability, T/C [18]: 59.6%; viability, T/C [19]: 78.4%; viability, T/C [20]: 66.2%; viability, T/C [21]: 84.3%; viability, T/C [22]: 68.2%; viability, T/C [23]: 77.7%; viability, T/C [24]: 67.6%; viability, T/C [25]: 5.77%; viability, T/C [26]: 4.45%; viability, T/C [27]: 2.26%; viability, T/C [28]: 4.78%; viability, T/C [29]: 4.97%; viability, T/C [30]: 8.77%
